Assay results: PMC5408782, “Engineering bacterial thiosulfate and tetrathionate sensors for detecting gut inflammation” (Molecular Systems Biology, 2017)

Legend:
[1] = molecular target: T1, ThsSR (ThsS/R; Shal_3128/9) (Shewanella halifaxensis, UniProt B0TQ83); assay: sfGFP reporter, flow cytometry, repression transfer function; assay type: cell-based; details: read-out: half-maximal inhibition
T1 construct: E. coli codon-optimised ThsS (pKD182, IPTG-inducible) and ThsR (pKD184, aTc-inducible) in E. coli BW28357; PphsA342-sfGFP reporter; membrane histidine kinase with PhnD-like periplasmic sensor domain; with Thiosulfate response regulator ThsR
T1 sequence (B0TQ83 1-594): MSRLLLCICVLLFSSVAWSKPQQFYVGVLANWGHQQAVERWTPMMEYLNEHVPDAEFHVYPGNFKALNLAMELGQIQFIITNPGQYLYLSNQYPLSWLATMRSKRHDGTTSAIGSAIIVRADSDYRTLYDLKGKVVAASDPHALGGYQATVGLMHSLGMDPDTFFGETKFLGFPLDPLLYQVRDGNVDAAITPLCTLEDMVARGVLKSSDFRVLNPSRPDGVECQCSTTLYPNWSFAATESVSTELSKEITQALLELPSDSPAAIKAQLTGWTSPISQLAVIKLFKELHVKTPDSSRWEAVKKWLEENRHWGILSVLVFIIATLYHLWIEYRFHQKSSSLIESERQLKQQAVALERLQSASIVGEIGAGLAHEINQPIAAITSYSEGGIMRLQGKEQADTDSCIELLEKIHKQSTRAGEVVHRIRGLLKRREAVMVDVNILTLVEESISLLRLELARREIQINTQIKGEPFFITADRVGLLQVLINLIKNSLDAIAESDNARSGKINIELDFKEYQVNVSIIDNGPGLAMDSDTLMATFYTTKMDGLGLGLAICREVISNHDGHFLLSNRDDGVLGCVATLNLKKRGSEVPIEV

[2] = molecular target: T1, ThsSR (ThsS/R; Shal_3128/9); assay: sfGFP reporter, flow cytometry, Hill fit; assay type: cell-based; details: read-out: k 1/2
[3] = tested on: T2, S. baltica TtrSR (Sbal195_3859/8); assay: sfGFP reporter, flow cytometry, Hill fit; assay type: cell-based, Shewanella baltica; details: E. coli BW28357, aerobic, M9 + glycerol, 37°C, 10 μM IPTG; PttrB185-269 reporter; activation; read-out: k 1/2
T2 construct: gene ttrS; E. coli codon-optimised TtrS (pKD227, IPTG-inducible) and TtrR (pKD226, aTc-inducible) in E. coli BW28357; PttrB185-269-sfGFP reporter; with Tetrathionate response regulator TtrR

O=S(O)O [sulfite]
IC50 [1]: 390 ± 10 µM

O=S(O)(O)=S [thiosulfate]
EC50 [2]: 280 ± 10 µM

O=S(=O)(O)SSS(=O)(=O)O [tetrathionate]
IC50 [1]: 550 ± 20 µM | EC50 [3]: 50 ± 3 µM
